Structures can show the parent of a compound that is named as a salt.
What was measured:
[1] = molecular target: T1, L-type calcium channels in A10 cells (Rattus norvegicus, UniProt P22002); test: L-type Ca2+ channel blocking potency in A10 cells (FLIPR); assay type: cell-based; conditions: read-out: FLPA10 IC50
T1 construct: which endogenously expresses L-type calcium channels; host or cells: A10 rat embryonic thoracic aorta smooth muscle cells
Description: Measurement of L-type Ca^2+ Channel Blocking Potencies of Compounds in A10 Cells
Calcium flux through voltage-sensitive calcium channels was assessed by time-resolved monitoring of the fluorescence of pre-loaded calcium-sensitive dyes using FLIPR, a fluorescent image plate reader (Molecular Devices Co.). The A10 smooth muscle cell line derived from embryonic thoracic aorta of the DBIX rat (ATCC, CRL-1476) which endogenously expresses L-type calcium channels. The growth media for A10 cells was Ham's F12/DME high glucose (Irvine Scientific, 9052), supplemented with 20% fetal bovine serum (HyClone Labs, A-1115-L), and 1% each of L-glutamine and antibiotic-antimycotic (same source as above).
Cells were grown to confluency and replated on black-sided 96-well plates (Costar, 3603) for use in FLIPR. Two days after replating, growth media was removed and cells were loaded at 37° C. with 100 μL media containing 1 μM Oregon Green 488 Bapta-1 dye (Molecular Probes, O-6807) for 1 to 3 hours. The dye-containing media was then washed away with buffer (composition in mM: 1.25 CaCl2, 1.2 MgSO4, 11 glucose, 10 HEPES, 3.0 KCl, 137.0 NaCl, pH 7.4 with Tris base) in a Denley Cellwash (Labsystems, CW018B). The residual buffer volume was adjusted to 50 μL. A 5 minute drug-pre-incubation period at 35° C. was initiated when 50 μL of drug-containing buffer was pipetted into the cell plate with the 96-well pipettor integrated in the FLIPR apparatus. Fluorescent counts were monitored at 20 second intervals for 360 seconds, beginning 60 seconds prior to the delivery of drug-containing buffer. Following drug addition, 100 μL aliquots of a high K^+, depolarizing stimulus (composition in mM: 1.25 CaCl2, 1.2 MgSO4, 11 glucose, 10 HEPES, 140.0 KCl, pH 7.4 with Tris base) were added to each well, and fluorescence was monitored at 1 second intervals for 120 seconds beginning 10 seconds prior to the stimulus addition. CCD camera exposure time was 0.4 seconds, laser excitation was at 488 nm with a power of 0.2-0.5W, and a 510 to 560 nm bandpass interference filter preceded the camera.
Data was analyzed as a summation of fluorescent counts above basal during the stimulation period (an approximation of area under the curve), after normalizing the data with a spatial uniformity correction (for variations in laser illumination and cell density) and a negative control correction (zero calcium increase defined as the fluorescence reading in the presence of saturating pharmacologic block of the respective calcium channel). Drug effects were expressed as percent inhibition of fluorescence from an average of 8 K^+-stimulated wells which were pre-treated in the drug incubation period with buffer only. In the A10 cells, the pharmacologic agent used to define zero calcium influx was nitrendipine (RBI, N-144) at a final concentration of 1.0×10^−6 M.

[2] = molecular target: T2, N-type calcium channels in IMR-32 cells (Homo sapiens, UniProt Q00975); test: N-type Ca2+ channel blocking potency in IMR-32 cells using Indo-1; assay type: cell-based; conditions: for IC50: IMR-32 cells, estimated from two data points, read-out: IMR32 IC50 (estimated IC50 values based on two data points); for inhibition at 1 µM / inhibition at 10 µM: IMR-32, IMR-32 cells; for inhibition at 1 µM: read-out: IMR32 % blockage at 1 μM; for inhibition at 10 µM: read-out: IMR32 % blockage at 10 μM
T2 construct: host or cells: IMR-32 cells differentiated with dibutyryl cAMP and bromodeoxyuridine
T2 sequence (Q00975 whole entry): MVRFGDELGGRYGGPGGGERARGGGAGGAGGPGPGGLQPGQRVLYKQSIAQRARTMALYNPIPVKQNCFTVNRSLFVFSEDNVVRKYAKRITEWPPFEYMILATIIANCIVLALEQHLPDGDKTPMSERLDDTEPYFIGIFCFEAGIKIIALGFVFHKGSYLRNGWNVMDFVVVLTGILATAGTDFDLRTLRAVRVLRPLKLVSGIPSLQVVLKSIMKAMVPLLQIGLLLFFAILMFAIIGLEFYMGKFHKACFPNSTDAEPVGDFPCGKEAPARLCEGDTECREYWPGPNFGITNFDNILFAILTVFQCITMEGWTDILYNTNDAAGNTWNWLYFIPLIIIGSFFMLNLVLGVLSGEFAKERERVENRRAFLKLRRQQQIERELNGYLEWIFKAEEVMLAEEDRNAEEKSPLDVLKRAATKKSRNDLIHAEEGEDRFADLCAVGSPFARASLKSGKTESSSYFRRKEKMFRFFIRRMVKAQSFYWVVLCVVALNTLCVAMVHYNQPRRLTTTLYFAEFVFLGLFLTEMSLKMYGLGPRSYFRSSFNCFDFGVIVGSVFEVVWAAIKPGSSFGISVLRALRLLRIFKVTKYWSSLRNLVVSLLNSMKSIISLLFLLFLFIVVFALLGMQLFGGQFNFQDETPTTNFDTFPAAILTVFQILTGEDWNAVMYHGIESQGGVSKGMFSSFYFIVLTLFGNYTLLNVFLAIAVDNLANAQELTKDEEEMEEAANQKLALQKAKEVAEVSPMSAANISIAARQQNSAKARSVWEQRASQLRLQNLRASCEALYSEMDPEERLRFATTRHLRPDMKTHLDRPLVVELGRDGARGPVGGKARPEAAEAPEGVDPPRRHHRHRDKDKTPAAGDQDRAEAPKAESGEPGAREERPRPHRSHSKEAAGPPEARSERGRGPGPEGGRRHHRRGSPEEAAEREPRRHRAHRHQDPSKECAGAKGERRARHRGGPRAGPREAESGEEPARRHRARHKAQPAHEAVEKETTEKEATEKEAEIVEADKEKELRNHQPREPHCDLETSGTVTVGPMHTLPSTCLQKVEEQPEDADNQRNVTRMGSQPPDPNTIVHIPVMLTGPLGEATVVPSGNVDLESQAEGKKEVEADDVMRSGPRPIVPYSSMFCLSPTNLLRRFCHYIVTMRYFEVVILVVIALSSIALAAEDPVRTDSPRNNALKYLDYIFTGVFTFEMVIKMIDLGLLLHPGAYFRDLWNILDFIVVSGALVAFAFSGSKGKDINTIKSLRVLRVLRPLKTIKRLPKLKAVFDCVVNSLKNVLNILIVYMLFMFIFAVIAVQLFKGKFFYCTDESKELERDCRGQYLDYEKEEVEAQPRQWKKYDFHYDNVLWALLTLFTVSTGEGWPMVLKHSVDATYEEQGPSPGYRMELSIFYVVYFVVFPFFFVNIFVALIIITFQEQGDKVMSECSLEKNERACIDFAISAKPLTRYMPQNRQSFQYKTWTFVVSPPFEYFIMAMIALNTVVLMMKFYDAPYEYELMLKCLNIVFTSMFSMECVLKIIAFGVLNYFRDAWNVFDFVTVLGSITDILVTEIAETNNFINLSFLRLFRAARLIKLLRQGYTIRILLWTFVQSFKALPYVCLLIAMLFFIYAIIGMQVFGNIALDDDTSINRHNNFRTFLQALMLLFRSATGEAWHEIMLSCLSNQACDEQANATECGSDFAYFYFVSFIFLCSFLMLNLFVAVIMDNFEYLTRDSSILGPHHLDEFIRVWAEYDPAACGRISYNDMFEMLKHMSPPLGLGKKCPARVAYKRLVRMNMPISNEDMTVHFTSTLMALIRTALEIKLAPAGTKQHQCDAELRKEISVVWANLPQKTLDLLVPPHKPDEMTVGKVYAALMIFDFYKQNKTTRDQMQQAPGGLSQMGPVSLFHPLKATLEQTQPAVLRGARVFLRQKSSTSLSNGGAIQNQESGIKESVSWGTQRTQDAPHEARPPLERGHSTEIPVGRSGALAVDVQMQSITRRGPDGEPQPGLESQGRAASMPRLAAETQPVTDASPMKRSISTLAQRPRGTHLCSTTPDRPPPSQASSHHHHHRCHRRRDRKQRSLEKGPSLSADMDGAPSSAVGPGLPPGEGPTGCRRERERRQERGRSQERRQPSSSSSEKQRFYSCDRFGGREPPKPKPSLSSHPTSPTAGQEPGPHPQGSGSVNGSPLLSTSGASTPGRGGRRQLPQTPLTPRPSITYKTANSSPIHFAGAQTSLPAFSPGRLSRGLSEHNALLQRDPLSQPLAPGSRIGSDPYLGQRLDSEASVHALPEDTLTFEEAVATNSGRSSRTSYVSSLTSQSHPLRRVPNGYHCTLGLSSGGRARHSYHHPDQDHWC
T2 sequence (P54289 25-956 partner limits assumed): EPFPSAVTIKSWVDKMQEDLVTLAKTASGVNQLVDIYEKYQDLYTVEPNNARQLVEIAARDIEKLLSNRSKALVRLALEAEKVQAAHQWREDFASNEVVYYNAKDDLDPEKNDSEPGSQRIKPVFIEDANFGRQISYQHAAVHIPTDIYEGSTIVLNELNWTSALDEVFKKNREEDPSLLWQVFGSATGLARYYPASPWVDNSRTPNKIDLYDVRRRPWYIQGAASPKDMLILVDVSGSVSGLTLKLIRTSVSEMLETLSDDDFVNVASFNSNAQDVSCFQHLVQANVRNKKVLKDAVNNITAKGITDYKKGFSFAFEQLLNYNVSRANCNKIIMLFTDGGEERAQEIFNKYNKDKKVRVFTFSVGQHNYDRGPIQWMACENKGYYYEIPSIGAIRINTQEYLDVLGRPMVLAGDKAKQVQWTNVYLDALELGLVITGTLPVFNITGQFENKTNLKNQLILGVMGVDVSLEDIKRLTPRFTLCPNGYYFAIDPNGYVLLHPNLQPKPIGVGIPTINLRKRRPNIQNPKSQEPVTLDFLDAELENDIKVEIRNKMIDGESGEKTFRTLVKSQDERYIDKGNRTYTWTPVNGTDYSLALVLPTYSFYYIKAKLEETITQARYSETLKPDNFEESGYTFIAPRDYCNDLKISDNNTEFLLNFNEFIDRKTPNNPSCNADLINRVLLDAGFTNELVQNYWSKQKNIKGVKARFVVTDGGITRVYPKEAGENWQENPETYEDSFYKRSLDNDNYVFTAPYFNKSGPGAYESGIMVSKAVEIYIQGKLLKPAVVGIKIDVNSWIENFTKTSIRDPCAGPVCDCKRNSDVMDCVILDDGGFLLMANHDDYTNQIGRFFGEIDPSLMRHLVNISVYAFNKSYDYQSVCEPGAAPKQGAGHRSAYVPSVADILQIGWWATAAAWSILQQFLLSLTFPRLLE
T2 sequence (P54289 957-1103 partner limits assumed): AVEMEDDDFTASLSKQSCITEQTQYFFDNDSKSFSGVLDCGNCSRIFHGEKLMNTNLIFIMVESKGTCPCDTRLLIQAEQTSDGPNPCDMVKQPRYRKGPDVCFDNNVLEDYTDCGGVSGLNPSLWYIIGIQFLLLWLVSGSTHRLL
T2 sequence (Q02641 whole entry partner): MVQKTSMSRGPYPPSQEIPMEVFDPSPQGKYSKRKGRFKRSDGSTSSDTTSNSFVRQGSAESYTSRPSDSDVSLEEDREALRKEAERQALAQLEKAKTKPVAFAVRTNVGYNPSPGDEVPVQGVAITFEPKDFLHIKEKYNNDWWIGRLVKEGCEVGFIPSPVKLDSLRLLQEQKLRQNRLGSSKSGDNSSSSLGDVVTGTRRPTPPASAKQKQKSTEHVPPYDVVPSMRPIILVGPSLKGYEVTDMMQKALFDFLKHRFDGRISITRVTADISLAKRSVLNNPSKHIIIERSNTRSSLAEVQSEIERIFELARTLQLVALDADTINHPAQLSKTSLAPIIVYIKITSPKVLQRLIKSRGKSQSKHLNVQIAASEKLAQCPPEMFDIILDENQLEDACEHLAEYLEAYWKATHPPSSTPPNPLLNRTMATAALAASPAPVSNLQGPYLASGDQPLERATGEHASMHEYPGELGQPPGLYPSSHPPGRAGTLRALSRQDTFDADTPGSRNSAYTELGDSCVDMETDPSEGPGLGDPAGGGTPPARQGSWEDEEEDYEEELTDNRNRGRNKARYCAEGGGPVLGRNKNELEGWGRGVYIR
Description: Measurement of N-type Ca^2+ Channel Blocking Potencies of Compounds in IMR-32 Cells Using the Fluorescent Ca^2+ Indicator Indo-1
IMR-32 cells are a human tumoral cell line of neural origin. […] Calcium flux into these cells may be induced by stimulation with elevated potassium concentrations. The L-channel component of calcium flux may be blocked by adding 5 μM nitrendipine. The remaining component of calcium entry into the IMR-32 cells is due to calcium flux through N-type calcium channels. Intracellular calcium concentrations are measured using the fluorescent calcium indicator Indo-1. The effect of drug concentration on calcium uptake is studied.
The IMR-32 cell line was obtained from the American Type Culture Collection (Rockville, Md.). Cells were grown in Eagle's Minimum Essential Medium with Earle's salts supplemented with 10% fetal bovine serum, 2 mM L-Gln and antibiotic/antimycotic mixture (Gibco). At approximately 80% confluency, differentiation was induced by the addition of 1 mM dibutyryl cAMP and 2.5 μM bromodeoxyuridine to the medium. After 7 to 13 days of differentiation, cells were detached using 0.5 mM EDTA and loaded with 5 μM Indo-1 acetoxymethyl ester (Molecular Probes, Eugene, Oreg.) at 30° C. for 45 minutes. Loaded cells were washed twice, resuspended (˜10^7 cells/mL) in assay buffer (10 mM HEPES/Tris pH 7.4 in Hank's Balanced Salt Solution without bicarbonate or phenol red containing 0.5% bovine serum albumin) and kept on ice until use. Fluorescence measurements were carried out in a Photon Technology International (PTI, South Brunswick, N.J.) Model RF-F3004 spectrofluorometer with dual emission monochromators using excitation at 350 nm and emission at 400 and 490 nm. The instrument was equipped with a thermostated cuvette holder with stirring capabilities as well as with a computer-controlled pump which allowed for reagent addition during measurement. Instrument control and data collection was done by PTI's OSCAR software running on an IBM compatible computer. Different concentrations of the test compounds (60 μL in dimethyl sulfoxide) were added to 5.94 mL of assay buffer containing approximately 3×10^6 loaded cells, and 5 μM Nitrendipine (in 30 μL EtOH) to block L-type Ca^2+ channels. Samples were incubated for 10 minutes at 30° C. and the aliquot into three 10×10 mm disposable acrylic cuvettes. Emission signals at 400 and 490 nm were acquired from each cuvette at 30° C. for 50 seconds. At 20 seconds after the start of reading, cells were depolarized by the addition of 160 μL of stimulation solution (1 M KCl, 68 mM CaCl2) to the cuvette via the computer-controlled pump. Ratio of dual emission signals (400/490 nm), which is proportional to intracellular Ca^2+ concentration, was plotted against time, and the difference between maximal response after stimulation and basal value (before stimulation) was determined. Values obtained in this way were plotted as a function of drug concentration. IC50 values of test compounds were calculated by fitting a four-parameter logistic function to the data using the least squares method.

An IC50 [1] of 290 nM was found for `CC(C)C[C@@H](NC(=O)N1CCCCCC1)C(=O)NCCCC(c1ccc(F)cc1)c1ccc(F)cc1` [Example 2, (R)-Azepane-1-carboxylic acid {1-[4,4-bis-(4-fluoro-phenyl)-butylcarbamoyl]-3-methyl-butyl}-amide] in this work.
An IC50 [2] of 2000 nM and an IC50 [1] of 570 nM were found for `CC(C)C[C@H](NC1CCOCC1)C(=O)NCCCC(c1ccc(F)cc1)c1ccc(F)cc1` [Example 18, (S)-4-Methyl-2-(tetrahydro-pyran-4-ylamino)-pentanoic acid [4,4-bis-(4-fluoro-phenyl)-butyl]-amide] in this work.
An IC50 [2] of 1100 nM and an IC50 [1] of 660 nM were found for `CC(C)C[C@H](NC(C)C)C(=O)NCCCC(c1ccc(F)cc1)c1ccc(F)cc1` [Example 19, (S)-2-Isopropylamino-4-methyl-pentanoic acid [4,4-bis-(4-fluoro-phenyl)-butyl]-amide monohydrochloride] in this work.
An inhibition at 1 µM [2] of 25%, an inhibition at 10 µM [2] of 92% and an IC50 [1] of 470 nM were found for `CC(C)C[C@@H](C(=O)NCCCC(c1ccc(F)cc1)c1ccc(F)cc1)N(C)C` [Example 20, (S)-2-Dimethylamino-4-methyl-pentanoic acid [4,4-bis-(4-fluoro-phenyl)-butyl]-amide monohydrochloride] in this work.
An inhibition at 1 µM [2] of 71%, an inhibition at 10 µM [2] of 94% and an IC50 [1] of 270 nM were found for `CC(C)C[C@@H](C(=O)NCCCC(c1ccc(F)cc1)c1ccc(F)cc1)N(C)C1CCCCC1` [Example 21, (S)-2-(Cyclohexyl-methyl-amino)-4-methyl-pentanoic acid [4,4-bis-(4-fluoro-phenyl)-butyl]-amide monohydrochloride] in this work.
An inhibition at 1 µM [2] of 35%, an inhibition at 10 µM [2] of 89% and an IC50 [1] of 130 nM were found for `CC(C)C[C@@H](C(=O)NCCCC(c1ccc(F)cc1)c1ccc(F)cc1)N1CCOCC1` [Example 23, (S)-4-Methyl-2-morpholin-4-yl-pentanoic acid [4,4-bis-(4-fluoro-phenyl)-butyl]-amide monohydrochloride] in this work.
An IC50 [2] of 990 nM and an IC50 [1] of 800 nM were found for `CC(C)C[C@@H](C(=O)NCCC(c1ccccc1)c1ccccc1)N(C)C1CCCCC1` [Example 25, (S)-2-(Cyclohexyl-methyl-amino)-4-methyl-pentanoic acid (3,3-diphenyl-propyl)-amide monohydrochloride] in this work.
An IC50 [2] of 1200 nM and an IC50 [1] of 450 nM were found for `CC(C)C[C@@H](C(=O)NCCCC(c1ccc(F)cc1)c1ccc(F)cc1)N(C)C1CCOCC1` [Example 27, (S)-4-Methyl-2-[methyl-(tetrahydro-pyran-4-yl)-amino]-pentanoic acid [4,4-bis-(4-fluoro-phenyl)-butyl]-amide monohydrochloride] in this work.
An IC50 [2] of 1890 nM and an IC50 [1] of 630 nM were found for `CC(C)C[C@@H](NC(=O)N1CCCCCC1)C(=O)N1CCN(C(c2ccc(F)cc2)c2ccc(F)cc2)CC1` [Example 34, (R)-Azepane-1-carboxylic acid {1-(4-[bis-(4-fluoro-phenyl)-methyl]-piperazine-1-carbonyl}-3-methyl-butyl)-amide] in this work.
An IC50 [2] of 500 nM and an IC50 [1] of 360 nM were found for `CC(C)C[C@@H](CN1CCN(C(c2ccc(F)cc2)c2ccc(F)cc2)CC1)NC(=O)OC(C)(C)C` [Example 35, (S)-(1-{4-[Bis-(4-fluoro-phenyl)-methyl]-piperazin-1-ylmethyl}-3-methyl-butyl)-carbamic acid tert-butyl ester] in this work.
An IC50 [2] of 2000 nM and an IC50 [1] of 1400 nM were found for `CC(C)C[C@@H](C(=O)N1CCN(C(c2ccc(F)cc2)c2ccc(F)cc2)CC1)N1CCCCC1` [Example 37, (S)-1-{4-[Bis-(4-fluoro-phenyl)-methyl]-piperazin-1-yl}-4-methyl-2-piperidin-1-yl-pentan-1-one] in this work.
An IC50 [2] of 3200 nM and an IC50 [1] of 1000 nM were found for `CC(C)C[C@H](NC(C)C)C(=O)N1CCN(C(c2ccc(F)cc2)c2ccc(F)cc2)CC1` [Example 49, (S)-1-{4-[Bis-(4-fluoro-phenyl)-methyl]-piperazin-1-yl}-2-isopropylamino-4-methyl-pentan-1-one monohydrochloride] in this work.
An inhibition at 10 µM [2] of 99% and an IC50 [1] of 420 nM were found for `CC(C)C[C@H](NCc1ccccc1)C(=O)N1CCN(C(c2ccc(F)cc2)c2ccc(F)cc2)CC1` [Example 62, (S)-2-Benzylamino-1-{4-[bis-(4-fluoro-phenyl)-methyl]-piperazin-1-yl}-4-methyl-pentan-1-one] in this work.
An IC50 [1] of 1100 nM was found for `CC(C)C[C@H](NC1CCOCC1)C(=O)N1CCN(C(c2ccc(F)cc2)c2ccc(F)cc2)CC1` [Example 63, (S)-1-{4-[Bis-(4-fluoro-phenyl)-methyl]-piperazin-1-yl}-4-methyl-2-(tetrahydro-pyran-4-ylamino)-pentan-1-one] in this work.
An inhibition at 10 µM [2] of 83% and an IC50 [1] of 680 nM were found for `CC(C)N[C@H](C(=O)NCCCC(c1ccc(F)cc1)c1ccc(F)cc1)C(C)C` [Example 65, (S)-N-[4,4-Bis-(4-fluoro-phenyl)-butyl]-2-isopropylamino-3-methyl-butyramide] in this work.
An inhibition at 1 µM [2] of 34%, an inhibition at 10 µM [2] of 94% and an IC50 [1] of 510 nM were found for `CCC(C)N[C@H](C(=O)NCCCC(c1ccc(F)cc1)c1ccc(F)cc1)C(C)C` (stereo partly drawn) [Example 66, (S)-N-[4,4-Bis-(4-fluoro-phenyl)-butyl]-2-sec-butylamino-3-methyl-butyramide] in this work.
An inhibition at 10 µM [2] of 97% and an IC50 [1] of 530 nM were found for `CC(C)C[C@@H](C(=O)NCCCC(c1ccc(F)cc1)c1ccc(F)cc1)N(C)C(C)C` [Example 68, (S)-2-(Isopropyl-methyl-amino)-4-methyl-pentanoic acid [4,4-bis-(4-fluoro-phenyl)-butyl]-amide] in this work.
An inhibition at 1 µM [2] of 34%, an inhibition at 10 µM [2] of 99% and an IC50 [1] of 400 nM were found for `CC(C)[C@@H](C(=O)NCCCC(c1ccc(F)cc1)c1ccc(F)cc1)N(C)C1CCCCC1` [Example 69, (S)-N-[4,4-Bis-(4-fluoro-phenyl)-butyl]-2-(cyclohexyl-methyl-amino)-3-methyl-butyramide] in this work.

Reference: patent US6458781B1, “Substituted diarylalkyl amides as calcium channel antagonists” (priority 1998, dated 2002)
